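Protocol summary: plate cells (96-well), add compound at 5 concentrations, incubate 48 h, interpolate endpoints linearly. At the TGI there is no net growth.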
Assays:
Assay in all cases: NCI tumour cell line growth inhibition, 48 h
DLD-1 colon = tested on: DLD-1 colon
DMS 273 small cell lung = tested on: DMS 273 small cell lung
HCT-116 colon = tested on: HCT-116 colon
HOP-18 NSCLC = tested on: HOP-18 NSCLC
LXFL 529 NSCLC = tested on: LXFL 529 NSCLC
MALME-3M melanoma = tested on: MALME-3M melanoma
NCI-H226 lung = tested on: NCI-H226 lung
NCI-H522 lung = tested on: NCI-H522 lung
SN12C renal = tested on: SN12C renal
SNB-78 CNS = tested on: SNB-78 CNS
XF 498 CNS = tested on: XF 498 CNS
BT-549 breast = tested on: BT-549 breast
HOP-92 NSCLC = tested on: HOP-92 NSCLC
MCF7 breast = tested on: MCF7 breast
MDA-MB-435 = tested on: MDA-MB-435
MOLT-4 leukemia = tested on: MOLT-4 leukemia
PC-3 prostate = tested on: PC-3 prostate
U251 CNS = tested on: U251 CNS
HS 578T breast = tested on: HS 578T breast
NCI/ADR-RES ovarian = tested on: NCI/ADR-RES ovarian

Measured: TGI

OC12c3ccccc3C1CCCCCCCCCC21OCCCO1 (centres undefined)
> 100 µM: DLD-1 colon | DMS 273 small cell lung | HCT-116 colon | HOP-18 NSCLC | LXFL 529 NSCLC | MALME-3M melanoma | NCI-H226 lung | NCI-H522 lung | SN12C renal | SNB-78 CNS | XF 498 CNS

COc1cccc(N2C(=O)CSC2c2c[nH]c3ccccc23)c1 (centres undefined)
> 100 µM: BT-549 breast | HCT-116 colon | HOP-92 NSCLC | MCF7 breast | MDA-MB-435 | MOLT-4 leukemia | NCI-H522 lung | PC-3 prostate | SN12C renal | U251 CNS

CCOC(=O)c1csc(NC(=O)CN2CCCCC2)n1
> 100 µM: HOP-92 NSCLC | HS 578T breast | MCF7 breast | MDA-MB-435 | MOLT-4 leukemia | NCI/ADR-RES ovarian | PC-3 prostate | U251 CNS

From PubChem BioAssay (NCI)
